Drawing on patent US11952344B2, “Heterocyclic compound and use thereof” (TAKEDA PHARMACEUTICAL COMPANY LIMITED, priority 2019, dated 2024), this text covers inhibition for 30 molecules.

For this assay, the target named is T1, Human NMDA (NR1/NR2B) Receptor (Homo sapiens, UniProt Q13224).
T1 construct: host or cells: HEK293
T1 sequence (Q13224 27-1484, other chains not shown): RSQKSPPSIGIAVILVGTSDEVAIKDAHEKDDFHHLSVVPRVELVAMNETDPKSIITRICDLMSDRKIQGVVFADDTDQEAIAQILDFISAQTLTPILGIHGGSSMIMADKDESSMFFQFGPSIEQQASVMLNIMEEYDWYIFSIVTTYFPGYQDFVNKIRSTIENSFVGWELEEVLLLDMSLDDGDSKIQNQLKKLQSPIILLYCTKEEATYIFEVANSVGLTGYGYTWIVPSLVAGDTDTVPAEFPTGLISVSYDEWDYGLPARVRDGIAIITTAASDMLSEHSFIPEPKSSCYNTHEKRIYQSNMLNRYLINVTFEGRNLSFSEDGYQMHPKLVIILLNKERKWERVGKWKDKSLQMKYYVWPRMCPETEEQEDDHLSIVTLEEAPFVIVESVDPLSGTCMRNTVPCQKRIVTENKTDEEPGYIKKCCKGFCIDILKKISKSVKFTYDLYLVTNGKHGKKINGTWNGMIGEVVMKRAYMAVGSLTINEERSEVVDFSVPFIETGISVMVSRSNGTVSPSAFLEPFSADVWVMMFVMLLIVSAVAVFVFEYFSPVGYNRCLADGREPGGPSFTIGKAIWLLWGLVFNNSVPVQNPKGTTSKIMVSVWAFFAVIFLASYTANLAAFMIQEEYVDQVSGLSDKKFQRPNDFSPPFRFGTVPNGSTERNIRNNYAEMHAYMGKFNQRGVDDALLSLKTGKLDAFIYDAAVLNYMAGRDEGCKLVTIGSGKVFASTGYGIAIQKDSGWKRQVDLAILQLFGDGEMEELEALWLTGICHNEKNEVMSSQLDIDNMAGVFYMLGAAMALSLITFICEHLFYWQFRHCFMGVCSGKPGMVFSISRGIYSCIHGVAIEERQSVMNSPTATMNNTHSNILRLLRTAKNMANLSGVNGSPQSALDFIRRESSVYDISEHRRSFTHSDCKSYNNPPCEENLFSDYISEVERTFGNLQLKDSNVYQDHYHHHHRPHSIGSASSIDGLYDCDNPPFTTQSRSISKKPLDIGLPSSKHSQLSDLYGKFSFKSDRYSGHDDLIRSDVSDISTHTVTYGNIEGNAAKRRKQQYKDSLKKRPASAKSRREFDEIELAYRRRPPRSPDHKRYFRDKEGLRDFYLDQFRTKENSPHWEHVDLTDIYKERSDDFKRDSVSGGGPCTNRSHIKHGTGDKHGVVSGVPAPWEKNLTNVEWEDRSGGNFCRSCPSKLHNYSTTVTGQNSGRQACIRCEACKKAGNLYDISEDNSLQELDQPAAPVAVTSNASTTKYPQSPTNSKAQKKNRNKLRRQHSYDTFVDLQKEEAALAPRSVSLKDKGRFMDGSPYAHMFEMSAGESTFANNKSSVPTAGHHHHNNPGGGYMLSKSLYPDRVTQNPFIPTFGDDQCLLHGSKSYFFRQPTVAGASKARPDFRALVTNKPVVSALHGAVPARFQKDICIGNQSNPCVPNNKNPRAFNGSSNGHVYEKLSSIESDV
The experiment in a line: NR2B Ca2+ influx assay. Type of assay: cell-based. Conditions: 10 μM compound; HEK293 cells expressing GRIN1 and GRIN2B; glutamic acid/glycine-induced Ca2+ influx, Fluo-4 fluorescence; read-out: inhibitory rate (10 μM compound concentration). An excerpt: Experimental Example 1 NR2B Ca^2+ Influx Assay
To confirm the “antagonistic action on an NMDA receptor containing the NR2B subunit” of the compound of the present invention, human embryonic kidney cell expressing the “NMDA receptor composed of four subunits including 2 sets of heterodimers of NR1 and NR2B”, specifically HEK293 cell expressing human glutamate ionotropic receptor NMDA type subunit 1 (GRIN1) and human glutamate ionotropic receptor NMDA type subunit 2B (GRIN2B), was used and the activation suppressive effect (inhibitory activity) on the receptors by the compound of the present invention was measured.
HEK293 cells that express GRIN1 and GRIN2B were purchased from ChanTest (Human NMDA (NR1/NR2B) Receptor-expressing, stable replicating cell line (HEK293) catalog No. CT6121).
As an index of the NMDA receptor activation, intracellular calcium ion (Ca^2+) influx caused by the binding of glycine and glutamic acid with NR1 and NR2B, respectively, was used.
HEK293 cells that express GRIN1 and GRIN2B were cultured in a cell culture flask in DMEM/F-12 (COSMO BIO, 10-092-CM) medium added with 10% FBS (fetal bovine serum, AusGene), 100 units/mL penicillin, 100 μg/mL streptomycin, 500 μg/mL neomycin, 100 μg/mL Zeocin (registered trade mark, Invitrogen), 5 μg/mL Blasticidin, in an incubator (37° C., 5% CO2).
The cells were detached from flask with trypsin the day before the assay, suspended in a seeding medium (DMEM (Invitrogen, 31053) added with 10% FBS, 100 units/mL penicillin, 100 μg/mL streptomycin) at 8×10^5 cells/mL, seeded by 25 μL/well in a 384-well plate (Falcon, 356663) at 20000 cells/well, and cultured overnight in an incubator. On the day of the assay, tetracycline (Wako Pure Chemical Industries, Ltd., 209-16561) was diluted with the seeding medium at 2 μg/mL, added at 25 μL/well to the plate seeded with the cells, and cultured for 2 hr in an incubator. Thereafter, the medium was removed, and the cells were washed with 50 μL/well assay buffer (137 mM NaCl, 4 mM KCl, 1.8 mM CaCl2, 10 mM HEPES (pH 7.2), 10 mM Glucose, 0.1% BSA). Then, a loading buffer (assay buffer added with 2.5 μM Fluo-4AM, 2 mM Amaranth, 1 mM Tartrazine) was added at 25 μL/well, and incubation was performed in the incubator for 30 min, and at room temperature for 15 min. A solution (25 μL/well) of the Example compound diluted with the above-mentioned assay buffer at 30 μM (final concentration 10 μM) was added, and the cells were stood for 15 min at room temperature. Using FDSS7000EX/μCELL (Hamamatsu Photonics K.K.), 25 μL/well of an assay buffer containing 30 μM glutamic acid, 30 μM glycine was added, and the fluorescence signal at wavelength of Excitation 480 nm, Emission 540 nm was measured every 3 seconds for 5 min. The inhibitory activity was calculated as a relative activity value (inhibitory rate) that inhibits 100% of the cumulative value of the fluorescence value of a well added with an assay buffer free of glutamic acid, glycine, relative to the cumulative value of the fluorescence value of each well.
`COc1ccncc1CNC(=O)c1cnc(OC(F)F)c(F)c1` [Example 5, 6-(difluoromethoxy)-5-fluoro-N-[(4-methoxypyridin-3-yl)methyl]pyridine-3-carboxamide]: the inhibition at 10 µM was found to be 94%.

On to `CCOc1ncncc1CNC(=O)c1cc(F)c(OC(F)F)c(F)c1` [Example 87, 4-(difluoromethoxy)-N-[(4-ethoxypyrimidin-5-yl)methyl]-3,5-difluorobenzamide], for which the inhibition at 10 µM was 93%.

On to `Cc1ccncc1CNC(=O)c1ccc(C(F)(F)F)c(F)c1` [Example 53, 3-fluoro-N-[(4-methylpyridin-3-yl)methyl]-4-(trifluoromethyl)-benzamide], for which the inhibition at 10 µM was found to be 91%.

Turning to `COc1ncncc1CNC(=O)c1ccc(OC(F)F)cc1` [Example 25, 4-(difluoromethoxy)-N-[(4-methoxypyrimidin-5-yl)methyl]benzamide], the inhibition at 10 µM was 88%.

With `O=C(NCc1cncnc1OC1CC1)c1ccc(OC(F)F)c(F)c1` [Example 77, N-{[4-(cyclopropyloxy)-pyrimidin-5-yl]methyl}-4-(difluoromethoxy)-3-fluorobenzamide], the inhibition at 10 µM is 94%.

On to `CCOc1ncncc1CNC(=O)c1cnc(OC(F)F)c(F)c1` [Example 24, 6-(difluoromethoxy)-N-[(4-ethoxypyrimidin-5-yl)methyl]-5-fluoropyridine-3-carboxamide], for which the inhibition at 10 µM was 95%.

On to `Cc1ccncc1CNC(=O)c1ccc(OC(F)(F)F)c(F)c1` [Example 49, 3-fluoro-N-[(4-methylpyridin-3-yl)methyl]-4-(trifluoromethoxy)-benzamide], for which the inhibition at 10 µM was 94%.

Turning to `O=C(NCc1cncc(Br)c1)c1ccc(OC(F)(F)F)cc1` [Example 3, N-[(5-bromopyridin-3-yl)methyl]-4-(trifluoromethoxy)benzamide], the inhibition at 10 µM stood at 95%.

For `Cc1ccncc1CNC(=O)c1ccc(C(F)(F)F)s1` [Example 64, N-[(4-methylpyridin-3-yl)methyl]-5-(trifluoromethyl)thiophene-2-carboxamide], the inhibition at 10 µM turned out to be 85%.

Regarding `Cc1ccncc1CNC(=O)c1cnc(OC(F)F)c(F)c1` [Example 18, 6-(difluoromethoxy)-5-fluoro-N-[(4-methylpyridin-3-yl)methyl]pyridine-3-carboxamide], the inhibition at 10 µM came out at 96%.

As for `CCOc1ncc(C(=O)NCc2cnccc2C)cc1F` [Example 45, 6-ethoxy-5-fluoro-N-[(4-methylpyridin-3-yl)methyl]pyridine-3-carboxamide], the inhibition at 10 µM came to 91%.

Take `Cc1ccncc1CNC(=O)c1cnc(OC(F)(F)F)c(F)c1` [Example 35, 5-fluoro-N-[(4-methylpyridin-3-yl)methyl]-6-(trifluoromethoxy)-pyridine-3-carboxamide]: the inhibition at 10 µM is 96%.

`O=C(NCc1cncnc1OC1CC(F)(F)C1)c1cnc(OC(F)F)c(F)c1` [Example 32, N-({4-[(3,3-difluorocyclobutyl)-oxy]pyrimidin-5-yl}methyl)-6-(difluoromethoxy)-5-fluoropyridine-3-carboxamide]: the inhibition at 10 µM came to 96%.

For the molecule `CCOc1ncncc1CNC(=O)c1cc(F)c(OC)c(F)c1` [Example 86, N-[(4-ethoxypyrimidin-5-yl)methyl]-3,5-difluoro-4-methoxybenzamide], the inhibition at 10 µM was 90%.

Consider `CCOc1ncc(C(=O)NCc2cncnc2OC2CC2)cc1F` [Example 75, N-{[4-(cyclopropyloxy)-pyrimidin-5-yl]methyl}-6-ethoxy-5-fluoropyridine-3-carboxamide], for which the inhibition at 10 µM was 93%.

As for `O=C(NCc1cnccc1C(F)(F)F)c1cnc(OC(F)F)c(F)c1` [Example 16, 6-(difluoromethoxy)-5-fluoro-N-{[4-(trifluoromethyl)pyridin-3-yl]methyl}pyridine-3-carboxamide], the inhibition at 10 µM came to 94%.

On to `Cc1c(F)cncc1CNC(=O)c1cnc(C(C)(F)F)c(Cl)c1` [Example 98, 5-chloro-6-(1,1-difluoroethyl)-N-[(5-fluoro-4-methylpyridin-3-yl)methyl]pyridine-3-carboxamide], for which the inhibition at 10 µM is 95%.

Consider `CC(F)(F)c1ncc(C(=O)NCc2cncnc2OC2CC2)cc1F` [Example 91, N-{[4-(cyclopropyloxy)-pyrimidin-5-yl]methyl}-6-(1,1-difluoroethyl)-5-fluoropyridine-3-carboxamide], for which the inhibition at 10 µM worked out at 91%.

Consider `Cc1ccncc1CNC(=O)c1ccc(OC(F)(F)F)cc1` [Example 4, N-[(4-methylpyridin-3-yl)methyl]-4-(trifluoromethoxy)benzamide], for which the inhibition at 10 µM came to 96%.

Consider `O=C(NCc1cncc(Cl)c1)c1ccc(OC(F)(F)F)cc1` [Example 2, N-[(5-chloropyridin-3-yl)methyl]-4-(trifluoromethoxy)benzamide], for which the inhibition at 10 µM was 93%.

As to `COc1ncncc1CNC(=O)c1csc(C2CC2)c1` [Example 79, 5-cyclopropyl-N-[(4-methoxypyrimidin-5-yl)methyl]thiophene-3-carboxamide], the inhibition at 10 µM worked out at 89%.

For `Cc1ccncc1CNC(=O)c1cnc(OC(F)F)c(Cl)c1` [Example 27, 5-chloro-6-(difluoromethoxy)-N-[(4-methylpyridin-3-yl)methyl]pyridine-3-carboxamide], the inhibition at 10 µM worked out at 95%.

As to `COc1cncc(CNC(=O)c2ccc(OC(F)(F)F)cc2)c1` [Example 1, N-[(5-methoxypyridin-3-yl)methyl]-4-(trifluoromethoxy)benzamide], the inhibition at 10 µM was determined as 95%.

`O=C(NCc1cnccc1OC(F)F)c1cnc(OC(F)F)c(F)c1` [Example 99, 6-(difluoromethoxy)-N-{[4-(difluoromethoxy)pyridin-3-yl]methyl}-5-fluoropyridine-3-carboxamide]: the inhibition at 10 µM worked out at 89%.

With `COc1ncncc1CNC(=O)c1ccc(OC(F)(F)F)c(F)c1` [Example 22, 3-fluoro-N-[(4-methoxypyrimidin-5-yl)methyl]-4-(trifluoromethoxy)benzamide], the inhibition at 10 µM was determined as 95%.

As to `Cc1c(F)cncc1CNC(=O)c1cnc(C2CC2(F)F)c(F)c1` (stereo not drawn) [Example 103, 6-(2,2-difluorocyclopropyl)-5-fluoro-N-[(5-fluoro-4-methylpyridin-3-yl)methyl]pyridine-3-carboxamide], the inhibition at 10 µM is 92%.

For `Cc1ccncc1CNC(=O)c1ccc(OC(F)F)c(F)c1` [Example 48, 4-(difluoromethoxy)-3-fluoro-N-[(4-methylpyridin-3-yl)methyl]benzamide], the inhibition at 10 µM worked out at 88%.

Take `O=C(NCc1cnccc1C(F)F)c1cnc(OC(F)F)c(F)c1` [Example 70, 6-(difluoromethoxy)-N-{[4-(difluoromethyl)pyridin-3-yl]methyl)-5-fluoropyridine-3-carboxamide]: the inhibition at 10 µM worked out at 91%.

With `Cc1ccncc1CNC(=O)c1ccc(OC(F)F)nc1` [Example 51, 6-(difluoromethoxy)-N-[(4-methylpyridin-3-yl)methyl]pyridine-3-carboxamide], the inhibition at 10 µM is 87%.

In the case of `Cc1ccncc1CNC(=O)c1ccc(C(F)(F)F)c(Cl)c1` [Example 54, 3-chloro-N-[(4-methylpyridin-3-yl)methyl]-4-(trifluoromethyl)-benzamide], the inhibition at 10 µM turned out to be 94%.
